According to US8486962B2, “Antifungal agents” (F2G Ltd., priority 2005, dated 2013):
Values after ≈ are worked out from the molar mass of the structure shown.

Key:
Aspergillus terreus = assay: MIC, YAG medium, Aspergillus terreus; type: cell-based; details: Aspergillus terreus; YAG medium; read-out: MIC A Terreus 4
Summary of the method: (§1)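 MICs in mg/L are lowest drug levels suppressing growth (OD 485 nm) relative to drug-free wells: Aspergillus in YAG at >70%, 24 hrs; Candida albicans in buffered RPMI at >80%, 24-48 hrs. Both incubated at 35° C across 50-0.05 mg/L doubling dilutions.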

[1] = tested on: Aspergillus fumigatus AF293; assay: MIC, YAG medium, Aspergillus fumigatus AF293; type: cell-based; details: Aspergillus fumigatus, AF293; YAG medium; read-out: MIC A Fum. 293
Summary of the method: as §1

[2] = tested on: Aspergillus fumigatus AF210; assay: MIC, YAG medium, Aspergillus fumigatus AF210; type: cell-based; details: Aspergillus fumigatus, AF210; YAG medium; read-out: MIC A Fum. 210
Summary of the method: as §1

Candida parapsilosis = assay: MIC, RPMI medium, Candida parapsilosis; type: cell-based; details: Lodderomyces parapsilosis, read-out: MIC C. parapsilosis
Description: (§2) Measurement of Minimum Inhibitory Concentrations (MICs)
(§3) Between 1 and 5 mgs of compound were accurately weighed out into a sterile Eppendorf tube. The compound was dissolved in DMSO to give a solution containing 5 mg/ml. Tubes were stored at −20° C. until required.
(§4) On the day of testing thawed solutions were vortex mixed to ensure homogeneity. 30 μl of solution was removed and added to 570 μl of sterile water in a separate sterile Eppendorf. The thoroughly mixed solution was used to prepare a series of doubling dilutions in water, in a deep well plate. Eleven replicate plates were prepared using a Minitrak by aspirating 20 μl from each well into eleven clear polystyrene 96 well plates.
(§5) Spores of Aspergillus spp (Aspergillus fumigatus, Aspergillus terreus, Aspergillus niger and Aspergillus flavus) were harvested from cultures grown on Sabarauds agar for 5 days, and resuspended in PBS/Tween 80 to approx 1×10^7 cfu/ml Other filamentous fungi (Fusarium solani, Scedosporium spp., Trichophyton spp., Absidia corymbifera), were grown on Sabarauds agar for 2-10 days and spores/hyphae resuspended in PBS/Tween to give approx 1×10^7 cfU/ml. Candida species (Candida albicans, Candida glabrata, Candida krusei, Candida parapsilosis and Candida tropicalis) were grown on Sabarauds agar, cells were harvested from the agar using a sterile loop and resuspended in PBS/Tween 80 to approx 1×10^6 cfu/ml. Each organism suspension was diluted in RPMI medium, containing 2% glucose and 0.135M MOPS buffer (pH7.0) to 2×10^4 cfu/ml for Aspergillus spp and other filamentous fungi and 2×10^3 cfu/ml for yeast. 80 μl of an organism suspension was added to each well of the plate containing drug dilutions.
(§6) This produced MIC plates with a drug range 50-0.05 mg/L and organism inocula of 1-2×10^4 cfu/ml for Aspergillus spp and other filamentous fungi and 1-2×10^3 cfu/ml for yeasts. All plates were incubated for 24-48 hrs at 35° C. Growth was assessed by monitoring the optical density at 485 nm for each well. The MIC of a compound is the lowest drug concentration that inhibits growth of an organism by >80% compared with a drug free control. MICs are recorded as mg/L. Other growth media can be used for susceptibility testing, and the activity of the described compounds can also be assessed in a medium comprising, 1% glucose, 1% ammonium chloride and 0.5% yeast extract (YAG medium). To perform MIC tests in this medium, dilutions of compounds are prepared in microtitre plates as described above. Fungal strains to be tested are grown and harvested in an identical manner to that described above, each organism suspension is then diluted in YAG medium to 2×10^4 cfu/ml for Aspergillus spp and other filamentous fungi and 2×10^3 cfu/ml for yeast. 80 μl of an organism suspension was added to each well of the plate containing drug dilutions. This produced MIC plates with a drug range 50-0.05 mg/L and organism inocula of 1-2×10^4 cfu/ml for Aspergillus spp and other filamentous fungi and 1-2×10^3 cfu/ml for yeasts. All plates were incubated for 24 hrs at 35° C. Growth was assessed by monitoring the optical density at 485 nm for each well. The MIC of a compound is the lowest drug concentration that inhibits growth of an organism by >70% compared with a drug free control. MICs are recorded as mg/L. In cases where the MIC of an organism is […]0.05 mg/L the MIC is repeated using a concentration range of 0.5-0.0005 mg/L. MIC tests in YAG medium have more clear-cut endpoints and have slightly lower MICS than those performed in RPMI medium.
(§7) The following organisms were tested: Aspergillus fumigatus AF293 and Aspergillus fumigatus AF210, Aspergillus niger, Aspergillus terreus, Aspergillus favus, Candida albicans, Candida krusei, Candida tropicalis, Candida glabrata, Candida parapsilosis, Trichophyton rubrum, Trichophyton mentagrophytes, Scedosporium prolificans, Scedosporium apiospermum, Absidia corymbifera, Fusarium solani.

Candida krusei = assay: MIC, RPMI medium, Candida krusei; type: cell-based; details: Pichia kudriavzevii, read-out: MIC C. krusei
Description: as §2, §3, §4, §5, §6, §7

Aspergillus niger = assay: MIC, YAG medium, Aspergillus niger; type: cell-based; details: Aspergillus niger; YAG medium; read-out: MIC A Niger 1
Summary of the method: as §1

Candida albicans = assay: MIC, RPMI medium, Candida albicans; type: cell-based; details: read-out: MIC C. albicans
Description: as §2, §3, §4, §5, §6, §7

Aspergillus flavus = assay: MIC, YAG medium, Aspergillus flavus; type: cell-based; details: Aspergillus flavus; YAG medium; read-out: MIC A Flavus 01
Summary of the method: as §1

Candida glabrata = assay: MIC, RPMI medium, Candida glabrata; type: cell-based; details: Nakaseomyces glabratus, read-out: MIC C. glabrata
Description: as §2, §3, §4, §5, §6, §7

A Terreus 49 = assay: MIC, YAG medium, A Terreus 49; type: cell-based, Aspergillus terreus; details: Aspergillus terreus; YAG medium; read-out: MIC A Terreus 49
Summary of the method: as §1

Candida tropicalis = assay: MIC, RPMI medium, Candida tropicalis; type: cell-based; details: read-out: MIC C. tropicalis
Description: as §2, §3, §4, §5, §6, §7

Compound | MIC (Aspergillus terreus) [µg/mL] | MIC [1] [µg/mL] | MIC [2] [µg/mL] | MIC (Candida parapsilosis) [µg/mL] | MIC (Candida krusei) [µg/mL] | MIC (Aspergillus niger) [µg/mL] | MIC (Candida albicans) [µg/mL] | MIC (Aspergillus flavus) [µg/mL] | MIC (Candida glabrata) [µg/mL] | MIC (A Terreus 49) [µg/mL] | MIC (Candida tropicalis) [µg/mL]
CN(C)c1ccc(NC(=O)C(=O)c2c(-c3ccccc3)cc3ccccn23)cc1C(=O)O [Example 274, 2-Dimethylamino-5-[2-oxo-2-(2-phenyl-indolizin-3-yl)-acetylamino]-benzoic acid] | > 50 | 50 (≈ 117 µM) | > 50 | 50 (≈ 117 µM) | > 50 | > 50 | 3.1 (≈ 7.25 µM) | 50 (≈ 117 µM) | > 50 | 12.5 (≈ 29.2 µM) | 12.5 (≈ 29.2 µM)
O=C(Nc1ccc(Nc2ccccn2)cc1)C(=O)c1c(-c2ccccc2)cc2ccccn12 [Example 270, 2-Oxo-2-(2-phenyl-indolizin-3-yl)-N-[4-(pyridin-2-ylamino)-phenyl]-acetamide] | 0.05 (≈ 0.116 µM) | 0.05 (≈ 0.116 µM) | 0.015 (≈ 0.0347 µM) | 50 (≈ 116 µM) | 50 (≈ 116 µM) | 0.05 (≈ 0.116 µM) | 6.25 (≈ 14.5 µM) | 0.05 (≈ 0.116 µM) | 50 (≈ 116 µM) | 0.12 (≈ 0.277 µM) | 25 (≈ 57.8 µM)
COCCNC(=O)C(=O)c1c(-c2cccnc2)cc2ccccn12 [Example 185, N-(2-Methoxy-ethyl)-2-oxo-2-(2-pyridin-3-yl-indolizin-3-yl)-acetamide] | – | – | – | 50 (≈ 155 µM) | > 50 | – | 50 (≈ 155 µM) | – | > 50 | – | 12.5 (≈ 38.7 µM)
O=C(Nc1ccc(-c2nnn[nH]2)cc1)C(=O)c1c(-c2ccccc2)cc2ccccn12 [Example 271, 2-Oxo-2-(2-phenyl-indolizin-3-yl)-N-[4-(1H-tetrazol-5-yl)-phenyl]-acetamide] | 25 (≈ 61.2 µM) | 50 (≈ 122 µM) | 50 (≈ 122 µM) | 50 (≈ 122 µM) | 50 (≈ 122 µM) | 50 (≈ 122 µM) | 3.1 (≈ 7.59 µM) | 50 (≈ 122 µM) | 50 (≈ 122 µM) | 25 (≈ 61.2 µM) | 25 (≈ 61.2 µM)
O=C(Nc1ccc(C(F)(F)F)cc1)C(=O)c1c(-c2cccnc2)cc2ccccn12 [Example 212, 2-Oxo-2-(2-pyridin-3-yl-indolizin-3-yl)-N-(4-trifluoromethyl-phenyl)-acetamide] | 0.1 (≈ 0.244 µM) | 0.8 (≈ 1.95 µM) | 0.4 (≈ 0.977 µM) | > 50 | > 50 | 0.4 (≈ 0.977 µM) | > 50 | 0.05 (≈ 0.122 µM) | 25 (≈ 61.1 µM) | – | > 50
COC(=O)C1CCCN1c1ccc(NC(=O)C(=O)c2c(-c3ccccc3)cc3ccccn23)cc1 (stereo not shown) [Example 275, 1-{4-[2-Oxo-2-(2-phenyl-indolizin-3-yl)-acetylamino]-phenyl}-pyrrolidine-2-carboxylic acid methyl ester] | 0.03 (≈ 0.0642 µM) | 0.05 (≈ 0.107 µM) | 0.03 (≈ 0.0642 µM) | > 50 | > 50 | 0.4 (≈ 0.856 µM) | 25 (≈ 53.5 µM) | 0.03 (≈ 0.0642 µM) | > 50 | 0.015 (≈ 0.0321 µM) | > 50
O=C(Nc1ccc(F)cc1)C(=O)c1c(-c2ccccc2)cc2ccccn12 [Example 200, N-(4-Fluoro-phenyl)-2-oxo-2-(2-phenyl-indolizin-3-yl)-acetamide] | 0.015 (≈ 0.0419 µM) | 0.25 (≈ 0.698 µM) | 0.25 (≈ 0.698 µM) | – | – | 0.031 (≈ 0.0865 µM) | – | 0.062 (≈ 0.173 µM) | – | 0.015 (≈ 0.0419 µM) | –
O=C1CCN(c2ccc(NC(=O)C(=O)c3c(-c4ccccc4)cc4ccccn34)cc2)CC1 [Example 272, 2-Oxo-N-[4-(4-oxo-piperidin-1-yl)-phenyl]-2-(2-phenyl-indolizin-3-yl)-acetamide] | 0.12 (≈ 0.274 µM) | 0.25 (≈ 0.571 µM) | 0.5 (≈ 1.14 µM) | 25 (≈ 57.1 µM) | 50 (≈ 114 µM) | 0.5 (≈ 1.14 µM) | 1.6 (≈ 3.66 µM) | 0.062 (≈ 0.142 µM) | 50 (≈ 114 µM) | 0.12 (≈ 0.274 µM) | 6.25 (≈ 14.3 µM)
O=C(Nc1ccc(Br)cc1)C(=O)c1c(-c2ccccc2)cc2ccccn12 [Example 204, N-(4-Bromo-phenyl)-2-oxo-2-(2-phenyl-indolizin-3-yl)-acetamide] | 0.015 (≈ 0.0358 µM) | 0.25 (≈ 0.596 µM) | 0.25 (≈ 0.596 µM) | – | – | 0.031 (≈ 0.0739 µM) | – | 0.031 (≈ 0.0739 µM) | – | 0.015 (≈ 0.0358 µM) | –
O=C(Nc1ccc(N2CCSCC2)cc1)C(=O)c1c(-c2ccccc2)cc2ccccn12 [Example 258, 2-Oxo-2-(2-phenyl-indolizin-3-yl)-N-(4-thiomorpholin-4-yl-phenyl)-acetamide] | 0.008 (≈ 0.0181 µM) | 0.03 (≈ 0.0679 µM) | 0.015 (≈ 0.034 µM) | – | – | 0.03 (≈ 0.0679 µM) | – | 0.015 (≈ 0.034 µM) | – | 0.008 (≈ 0.0181 µM) | –
COc1ccccc1-c1cc2ccccn2c1C(=O)C(=O)Nc1ccc(F)cc1F [Example 269, N-(2,4-Difluoro-phenyl)-2-[2-(2-methoxy-phenyl)-indolizin-3-yl]-2-oxo-acetamide] | 0.2 (≈ 0.492 µM) | 1.6 (≈ 3.94 µM) | 1.6 (≈ 3.94 µM) | – | – | 0.1 (≈ 0.246 µM) | – | 0.2 (≈ 0.492 µM) | – | 0.2 (≈ 0.492 µM) | –
